According to patent US20210029993A1, “SPATIAL INHIBITORS, DETERRENTS AND REPELLENTS FOR MOSQUITOES AND MIDGES” (BEDOUKIAN RESEARCH, INC., priority 2005, published 2021):

System: female mosquitoes (Aedes aegypti)
Assay: Mosquitoes feeding test (Plexiglas module, treated membrane over dyed sucrose/ATP solution)
Format: in vivo
Conditions: for Feeding Relative To Control: control = 1.00, lower = more repellent; for contact mosquito repellent activity (feeding tests, FIGS. 1 and 3), in words: feeding relative to control
Procedure: The test was conducted at 0900-2100 hours in a walk-in incubator (26° C., 63-80% RH) illuminated by fluorescent lights. Mosquitoes were tested in a two-piece Plexiglas module designed to assess their response to feeding deterrents. The bottom piece of the module was 40×7×4-cm hollow platform supporting six circular wells (diameter=3.8 cm, depth=6 mm). Water (40° C.) flowed through the central cavity of the platform at a rate of 215 ml/min. The top piece of the module consisted of six 4.5×4.0×5.0 cm chambers, the floors of which were fitted with a sliding door positioned over a circular opening 3.5 cm in diameter. Mosquitoes were introduced through an aperture 1 cm in diameter on the front wall of the chambers. For each test, five female mosquitoes (Aedes aegypti) were aspirated into each of five chambers of the top module piece and the apertures were plugged with corks wrapped in plastic film. The wells on the bottom piece of the module were filled with 7 ml of 10% sucrose solution containing ATP (2.9 mg/ml). To each well, 75 μl of green dye (McCormick Food, Hunt Valley, Md.) were added so that those mosquitoes imbibing the sugar solution could be identified when crushed at the end of the tests. Each membrane received 50 ul of acetone or experimental compound solution, applied to 9.6 cm^2 circular area on 0.1 mm-thick membranes made of nylon mesh in a silicone matrix. The membranes were then placed over each well in contact with the sugar solution.
The circular openings on the floor of each chamber of the top piece of the module were aligned with each membrane-covered well of the bottom piece. The sliding floors of the chambers were then opened allowing mosquitoes access to the membranes. The number of mosquitoes landing on the membranes, and those flying within the apparatus, were recorded each minute for five minutes. After five minutes, any mosquitoes remaining on the membranes were removed with a metal wire, and the door of the floor of each chamber was closed. The top piece of the module was then placed into a freezer for 20 minutes. In the test designed to assess feeding, mosquitoes were removed from the frozen module, crushed on white paper towels, and examined for the presence of green dye to indicate that feeding had occurred. The proportions of mosquitoes feeding per trial were analyzed using a standard generalized linear model with a logit link. Landing and flying scores are repeated measures; five reading were obtained for groups of five mosquitoes. Thus, to maintain independence among the data, the five readings were summed, and then the sums divided by 25 (the maximum score in each category) to create proportions of mosquitoes landing and flying. The proportions were then transferred using the standard variance stabilizing transformation for proportions (sin^−1 √y, where y is the proportion), and analyzed using ANOVA (Analysis of Variables)
In Table 1, weight percent (wt %) refers to the weight of the deterring/repelling/inhibiting compound, or combination of compounds, in the composition used in the tests. […] The weight ratio of the compounds in the combination of compounds is given in parentheses in the “Compound(s)” column of Table 1.

[1] = 87.5 wt % compound(s) in composition
[2] = 77.5 wt % compound(s) in composition
[3] = 80 wt % compound(s) in composition
[4] = 85 wt % compound(s) in composition
[5] = 92.5 wt % compound(s) in composition
[6] = 82.5 wt % compound(s) in composition
[7] = 90 wt % compound(s) in composition
[8] = 95 wt % compound(s) in composition

CC(C)=CCCC(C)CCO (stereo not shown) [Citronellol]
Feeding Relative To Control [1]: 0.62

CC(=O)OC/C=C(/C)CCC=C(C)C [Neryl acetate]
Feeding Relative To Control [2]: 0.76 | contact mosquito repellent activity (feeding tests, FIGS. 1 and 3), in words: especially effective as contact mosquito repellents

C=C[C@@](C)(O)CCC=C(C)C [d-Linalool, reference compound]
Feeding Relative To Control [3]: 0.32

C=C(C)[C@@H]1CC=C(C)[C@H](O)C1 (relative stereo) [cis-Carveol]
Feeding Relative To Control [4]: 0.66

CC(C)=CCCC(C)CC=O (stereo not shown) [Citronellal]
Feeding Relative To Control [5]: 0.62 | contact mosquito repellent activity (feeding tests, FIGS. 1 and 3), in words: especially effective as contact mosquito repellents

Cc1ccc(C(C)(C)O)cc1
Feeding Relative To Control [3]: 0.72 | contact mosquito repellent activity (feeding tests, FIGS. 1 and 3), in words: especially effective as contact mosquito repellents

C=C(C)C1CCC2(C)OC2C1 (single isomer, unassigned; (-)) [(−) Limonene oxide]
Feeding Relative To Control [5]: 0.76

CC(=O)OC/C=C(\C)CCC=C(C)C [Geranyl acetate]
Feeding Relative To Control [4]: 0.68 | contact mosquito repellent activity (feeding tests, FIGS. 1 and 3), in words: especially effective as contact mosquito repellents

l-Carvone
Feeding Relative To Control [6]: 0.62 | contact mosquito repellent activity (feeding tests, FIGS. 1 and 3), in words: especially effective as contact mosquito repellents

C=C(C)[C@H]1CC=C(C)C(=O)C1 [d-Carvone]
Feeding Relative To Control [2]: 0.64 | contact mosquito repellent activity (feeding tests, FIGS. 1 and 3), in words: especially effective as contact mosquito repellents

CC1=CCC(C(C)(C)O)CC1 (stereo not drawn) [α-terpineol]
Feeding Relative To Control [7]: 0.80 | contact mosquito repellent activity (feeding tests, FIGS. 1 and 3), in words: especially effective as contact mosquito repellents

C=CC(C)(CCC=C(C)C)OC(C)=O (stereo not shown) [Linaloyl acetate]
Feeding Relative To Control [8]: 0.74 | contact mosquito repellent activity (feeding tests, FIGS. 1 and 3), in words: especially effective as contact mosquito repellents

CC(C)=CCCC(C)=CC=O [Citral]
Feeding Relative To Control [6]: 0.60 | contact mosquito repellent activity (feeding tests, FIGS. 1 and 3), in words: especially effective as contact mosquito repellents

CC1=CCC(O)(C(C)C)CC1 (stereo not shown) [Terpinen-4-ol]
Feeding Relative To Control [7]: 0.74

CC(=O)OCCC(C)CCC=C(C)C (stereo not shown) [Citronellyl acetate]
Feeding Relative To Control [3]: 0.65

CC(C)[C@@H]1CC[C@@H](C)C(=O)C1 [Tetrahydrocarvone]
Feeding Relative To Control [8]: 0.70 | contact mosquito repellent activity (feeding tests, FIGS. 1 and 3), in words: especially effective as contact mosquito repellents

(+) Limonene oxide
Feeding Relative To Control [1]: 0.78

C=C(C)[C@@H]1CC=C(C)[C@@H](O)C1 (relative stereo) [trans-Carveol]
Feeding Relative To Control [2]: 0.64
